Earlier results in US20210349074A1, “METHOD OF TESTING TEARS AS A BIOMARKER FOR CANNABINOIDS” (priority 2020, published 2021).

Settings: during the first two hours after using cannabis

## CCCCCc1cc(O)c2c(c1)OC(C)(C)[C@@H]1CCC(C)=C[C@@H]21 [THC, Δ9-tetrahydrocannabinol]
  average drop of participants' THC blood levels: 5 ng/mL
